The target of this test is Isoform Bcl-X(L) of Bcl-2-like protein 1 (Bcl-xL) (Homo sapiens, UniProt Q07817). The experiment in a line: Bcl-XL/Bim binding disruption – biochemical, dose response, multiplexed, HTS hits, confirmation (AID 2084). Particulars: inactive by the depositor's call.
Isoform Bcl-X(L) of Bcl-2-like protein 1 (Bcl-xL), sequence (Q07817 whole entry G70A, canonical isoform): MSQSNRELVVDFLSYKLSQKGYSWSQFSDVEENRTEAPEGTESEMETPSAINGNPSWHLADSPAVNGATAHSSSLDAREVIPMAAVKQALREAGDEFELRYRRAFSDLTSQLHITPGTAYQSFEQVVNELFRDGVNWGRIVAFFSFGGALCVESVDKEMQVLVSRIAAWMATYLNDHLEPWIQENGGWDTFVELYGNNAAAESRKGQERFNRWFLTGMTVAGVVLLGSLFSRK
`O=c1[nH]c(O)c(Cc2ccc(-c3cc(Cl)ccc3[N+](=O)[O-])o2)c(=O)[nH]1`: the response was half-maximal at 26.4 µM (EC50).

Take `CNC1CCC(Br)CC(C(=O)C=Cc2cccc(OC)c2OC)C1=O` (stereo not given) [4-bromo-2-[(E)-3-(2,3-dimethoxyphenyl)-1-oxoprop-2-enyl]-7-(methylamino)-1-cycloheptanone]: the midpoint of the response, the EC50, lay at 45.5 µM.

Turning to `Cc1ccc(-c2nc3c(c(=O)[nH]c(=O)n3Cc3ccccc3)n2C)o1` [7-methyl-8-(5-methyl-2-furanyl)-3-(phenylmethyl)purine-2,6-dione], the EC50 (commonly the concentration giving half of the maximal effect) was 43.5 µM.

`Clc1nc(NCc2cccnc2)nc(N2CCOCC2)n1` [MLS000121154] came in with an EC50 of 15.1 µM.

As for `COc1ccc(CCNC(=O)c2ccc3nc(-c4ccco4)c(-c4ccco4)nc3c2)cc1OC` [N-[2-(3,4-dimethoxyphenyl)ethyl]-2,3-di-2-furylquinoxaline-6-carboxamide], the EC50 came to 18.4 µM.

The record behind these values is BindingDB's records for doi:10.7270/Q2862DWJ (Nmmlsc, 2009).
